Results on four compounds are retold here after patent US20230151302A1, “Cationic surfactants, in particular ethyl lauroyl arginate LAE, for treating or preventing infections and contaminations with Coronavirus” (priority 2020, published 2023).

One data set relates to SARS-CoV-2. The note with it: cited from earlier work.
Data set [1] relates to Poliovirus type 1 (ATCC VR-192). The class given is cell-based.
Data set [2] has as its system Coronavirus 229E (ATCC VR-740). The class given is cell-based, human Coronavirus 229E.
Data set [3] deals with Adenovirus type 5 (ATCC VR-5). It counts as cell-based.
Data set [4] relates to murine Norovirus (cepa S99 Berlin). The class given is cell-based.
Data set [5] deals with Bovine Parainfluenza 3 virus (ATCC VR-281). As to conditions: 200 ppm in water, after 5 and 60 minutes; monohydrochloride; cited from earlier work.
For data set [6] the following is noted: in vivo; cited from earlier work.
Data set [7] concerns Herpes simplex virus type 1. As to conditions: 200 ppm in water, after 5 and 60 minutes; monohydrochloride; cited from earlier work.
Data set [8] concerns Vaccinia virus (Orthopoxvirus). The note with it: monohydrochloride; cited from earlier work.
The conditions of data set [9]: rats; cited from earlier work.

Values joined by “and” are separate entries in the source; they are usually repeats but may differ in a detail not shown here. Identical values can stand only once. “Also recorded” adds a separate entry of the source. Like-named read-outs stand apart in the source and are kept apart here.

On to `[H]/N=C(\N/C(=N/[H])NCCCCCCNC(=N)NC(=N)Nc1ccc(Cl)cc1)Nc1ccc(Cl)cc1` [chlorhexidine], for which, in the data set on SARS-CoV-2, the “reduction in viral titres” value is < 2 log fold.

In the case of `CCO` [ethanol], the “effect on virus infectivity” value in the data set with SARS-CoV-2 (ethanol alone at <23%) is reported as “no effect”.

Turning to `C=O` [Formaldehyde, formaldehyde, reference compound], the “log10 TCID50 after 30 min” value in data set [1] came to 5.00 log10 TCID50; in [3] it was 2.58 log10 TCID50; in data set [4] it was 3.16 log10 TCID50. In addition, the “log10 TCID50 after 60 min” value in [1] turned out to be 3.07 log10 TCID50; in data set [3], 1.33 log10 TCID50; in [4], 1.74 log10 TCID50. Besides, the Level of cytotoxicity in the data set with Vero, ref. FTVE cells (African green monkey) is recorded as 0.5; in the data set on MRC-5, ref. FTMR cells (human), 0.5. Also, the “log10 TCID50 after 5 min” value in data set [2] is recorded as 3.58 log10 TCID50. Besides, the “log10 TCID50 after 15 min” value in data set [2] was found to be 2.49 log10 TCID50.

With “L-arginine, N^α-lauroyl-ethyl ester monohydrochloride [LAE®]”, the “antiviral activity, remaining virus (TCID50)” value in data set [5], in [7] and in [8] was “No remaining virus was detected; also recorded: effective” each time. The “toxicity to animals and humans” value in data set [6] is recorded as “completely harmless”. The “effectiveness against the virus” value is given as “not effective” in data set [1] and “effective” in data set [2]. For the same compound, the “viricidal activity (reduction ≥4 log10)” value in data set [1] was “has no viricidal activity”; in [2], “has viricidal activity”. Besides, in [1] (monohydrochloride), the “Reduction with 95% confidence interval after 30 minutes” value is 2.33±0.53 and 1.82±0.52 and 1.49±0.46 and 1.82 ± 0.52 log10 and 1.49 ± 0.46 log10 and 2.33 ± 0.53 log10. Further, the Level of cytotoxicity in the data set on Vero, ref. FTVE cells came out at 0.5; in the data set on MRC-5, ref. FTMR cells it was 0.5. In addition, the “reduction (maximum effects)” value in data set [2] is given as > 4 logo. Moreover, the absorption and metabolization result in data set [9] was “fast absorption and metabolization”.
